PMC10500568, “Inhibition of MurA Enzyme from Escherichia coli by Flavonoids and Their Synthetic Analogues” (ACS Omega, 2023)
pIC50: −log10 of the molar value. Where two headings read alike, the source gives them in different places.

Tests used:
S. aureus (ATCC 29213) = assay: Antibacterial assay, broth microdilution MIC; assay type: cell-based, Staphylococcus aureus; conditions: for MIC: Staphylococcus aureus, ATCC29213; for inhibition of S. aureus growth: broth microdilution
Description: (§1) To test antimicrobial properties, a broth microdilution method in 96-well plates was used according to Clinical and Laboratory Standards Institute guidelines[31] and European Committee on Antimicrobial Susceptibility Testing ([…]) recommendations.[32] Bacterial suspensions, equivalent to a 0.5 McFarland turbidity standard, were diluted with cation-adjusted Mueller–Hinton broth with TES buffering (ThermoFisher Scientific) to achieve a final inoculum of 10^5 CFU/mL. Compounds dissolved in 100% DMSO at a concentration of 10 mM were mixed with the inoculum and incubated at 35 °C for 20 h.

MurA enzyme from E. coli [1] = molecular target: T1, MurA enzyme from E. coli (Escherichia coli, UniProt P0A749); assay: MurA inhibition assay (malachite green, orthophosphate release); assay type: biochemical; conditions: for effect of DTT on inhibition (comparison of RAs): in the presence of DTT; for inhibitory activity on MurA in at least one of the three assays: residual activity at 100 μM, threshold 50% RA, no preincubation, 30 min preincubation, or 30 min + DTT; for remaining activity at 100 µM / time-dependent inhibition: inactive without preincubation, activity after 30 min of preincubation: 100 μM; for time-dependent inhibition: inactive without preincubation, activity after 30 min of preincubation: 0 min vs 30 min preincubation
T1 sequence (P0A749 whole entry): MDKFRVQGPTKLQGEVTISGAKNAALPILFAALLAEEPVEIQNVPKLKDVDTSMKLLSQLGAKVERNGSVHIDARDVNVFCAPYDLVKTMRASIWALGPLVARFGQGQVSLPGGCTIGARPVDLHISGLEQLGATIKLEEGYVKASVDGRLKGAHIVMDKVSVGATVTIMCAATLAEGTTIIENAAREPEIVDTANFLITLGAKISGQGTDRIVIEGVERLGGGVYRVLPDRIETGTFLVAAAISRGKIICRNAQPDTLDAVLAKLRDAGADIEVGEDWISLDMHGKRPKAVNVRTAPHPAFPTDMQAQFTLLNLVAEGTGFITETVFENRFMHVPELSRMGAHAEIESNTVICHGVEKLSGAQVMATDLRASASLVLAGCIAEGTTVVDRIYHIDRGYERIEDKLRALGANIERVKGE
Description: To determine the inhibition of MurA, the colorimetric assay with malachite green was used to measure the release of orthophosphate generated during the reaction.[30] […] Time-dependent inhibition assays were also performed by preincubating MurA with the 200 μM UNAG substrate and target compounds for 30 min at 37 °C before starting the reaction with the addition of the second substrate 100 μM PEP, resulting in a final mixture volume of 50 μL. The reaction was stopped after a 15 min incubation at 37 °C by adding the Biomol reagent (100 μL, Enzo Life Sciences, New York), and the absorbance was measured after 5 min at 650 nm using a microplate reader (BioTek, Synergy H4). The final concentration of DMSO in the reaction mixture was 5% (v/v), and 1 μM fosfomycin was used as a reference in the MurA assay. The percentage of residual activity was calculated in comparison to the negative controls, which contained only 5% DMSO. IC50 values were determined by measuring residual activities at 7 different concentrations of the compounds and calculated using GraphPad Prism (GraphPad Software, San Diego, California).
The initial screening of flavonoids was performed under three different assay conditions: (1) without preincubation, (2) with a 30 min preincubation, and (3) with the addition of dithiothreitol (DTT) along with a 30 min preincubation. These different conditions were necessary to understand the mechanism of inhibition of each flavonoid. […] To distinguish whether the adduct formed between the inhibitor and the enzyme was covalent or noncovalent, the inhibitory activity was tested in the presence of 0.1 mM DTT.

E. coli (ATCC 25922) = assay: Antibacterial assay, broth microdilution MIC; assay type: cell-based, Escherichia coli; conditions: for MIC: Escherichia coli, ATCC25922
Description: as §1

MurA enzyme from E. coli [2] = molecular target: T1, MurA enzyme from E. coli; assay: MurA dilution assay; assay type: biochemical; conditions: for RA% (residual activity), dilution assay: compound at 10 times IC50, 30 min preincubation, then 100-fold dilution
Description: The enzyme concentration used was the usual concentration in reactivity assays 100-fold (25 μM). After 30 min of preincubation, the mixture was diluted 100-fold, then the previously described reactivity assay was performed using 100 μM PEP.

S. aureus = system: S. aureus; parameters: method as in PMID 18313801; conditions: cited from earlier work
[3] = S. aureus ATCC 29213, 35 °C, 20 h, read-out: MIC S. aureus
[4] = 30 min preincubation with addition of DTT (0.1 mM), read-out: RA% (residual activity), 30 min + DTT
[5] = 30 min preincubation, read-out: IC50, 30 min
[6] = without preincubation, read-out: IC50, 0 min
[7] = E. coli ATCC 25922, 35 °C, 20 h, read-out: MIC E. coli
[8] = without preincubation, read-out: RA% (residual activity), 0 min

| SMILES | MIC (S. aureus (ATCC 29213); [3]) [µM] | Hill coefficient (dose-response curves at 0 and 30 min) (MurA enzyme from E. coli [1]; 0 and 30 min) | remaining activity at 100 µM (MurA enzyme from E. coli [1]; [4]) [%] | Hill coefficient, 30 min (MurA enzyme from E. coli [1]; 30 min preincubation) | effect of DTT on inhibition (comparison of RAs) (MurA enzyme from E. coli [1]; 30 min preincubation) | pIC50 (MurA enzyme from E. coli [1]; [5]) | inhibitory activity on MurA in at least one of the three assays (MurA enzyme from E. coli [1]) | Hill coefficient, 0 min (MurA enzyme from E. coli [1]; without preincubation) | pIC50 (MurA enzyme from E. coli [1]; [6]) | MIC (E. coli (ATCC 25922); [7]) [µM] | RA% (residual activity), dilution assay (MurA enzyme from E. coli [2]) [%] | time-dependent inhibition: inactive without preincubation, activity after 30 min of preincubation (MurA enzyme from E. coli [1]) | antibacterial activity against S. aureus, previous report (S. aureus) [µg/mL] | inhibition of S. aureus growth (S. aureus (ATCC 29213)) | remaining activity at 100 µM (MurA enzyme from E. coli [1]; [8]) [%] | MIC (S. aureus (ATCC 29213); S. aureus ATCC 29213, read-out: MIC S. aureus (positive control)) [µg/mL] | MIC (E. coli (ATCC 25922); E. coli ATCC 25922, read-out: MIC E. coli (positive control)) [µg/mL] | inhibitory activity after dilution (MurA enzyme from E. coli [2]; dilution assay) | effect on E. coli growth (E. coli (ATCC 25922); broth microdilution) |
| --- | --- | --- | --- | --- | --- | --- | --- | --- | --- | --- | --- | --- | --- | --- | --- | --- | --- | --- | --- |
| Oc1cc(O)c2c(c1)O[C@H](c1ccc(O)c(O)c1)[C@@H](O)[C@H]2O [Compound 35, leucocyanidin] | > 250 | > 2.5 | 13 | 2.9 | reduced inhibition in the presence of DTT | 4.54 | showed inhibitory activity | 2.6 | 4.16 | > 250 | – | – | – | – | – | – | – | – | – |
| O=c1c(O)c(-c2cc(O)c(O)c(O)c2)oc2cc(O)cc(O)c12 [Compound 4, myricetin] | > 250 | – | 34 | 1.9 | reduced inhibition in the presence of DTT | – | showed inhibitory activity | 0.8 | – | > 250 | 84 | active after 30 min of preincubation | – | – | – | – | – | – | – |
| O=c1c(O)c(-c2ccc(O)c(O)c2)oc2cc(O)cc(O)c12 [Compound 9, quercetin] | > 250 | – | 46 | 1.3 | reduced inhibition in the presence of DTT | 5.03 | showed inhibitory activity | 0.8 | 4.85 | > 250 | 93 | – | – | – | – | – | – | – | – |
| O=c1cc(-c2ccc(O)c(O)c2)oc2cc(O)cc(O)c12 [Compound 17, luteolin] | 125 | – | 96 | 1.3 | – | 4.38 | showed inhibitory activity | – | – | > 250 | 91 | – | 50 | weak inhibition | 68 | – | – | – | – |
| CN(C)[C@@H]1C(O)=C(C(N)=O)C(=O)[C@@]2(O)C(O)=C3C(=O)c4c(O)cccc4[C@@](C)(O)[C@H]3C[C@@H]12 [tetracycline, reference compound] | – | – | – | – | – | – | – | – | – | – | – | – | – | – | – | 0.5 | 1 | – | – |
| O=c1cc(-c2ccccc2)oc2cc(O)c(O)c(O)c12 [Compound 26, baicalein] | 31 | – | 86 | 1.4 | – | 4.21 | showed inhibitory activity | – | – | > 250 | 50 | active after 30 min of preincubation | – | weak inhibition | 66 | – | – | retained some inhibitory activity | had no effect |
| COc1cc(O)c2c(=O)c(O)c(-c3ccc(O)c(O)c3)oc2c1 [Compound 8, rhamnetin] | > 250 | – | 58 | 1.1 | reduced inhibition in the presence of DTT | 4.89 | showed inhibitory activity | 1.1 | 4.02 | > 250 | 77 | – | – | – | – | – | – | – | – |
| O=C1C[C@@H](c2ccccc2)Oc2ccccc21 [Compound 46, flavanone] | – | – | – | – | – | – | showed inhibitory activity | – | – | – | – | – | – | – | – | – | – | – | – |
